# Laboratory results as given in PubChem BioAssay (NCI).
# Several values for one entry are separate records, joined by “and”; a condition that tells them apart may be missing. Equal values may be shown once.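 Grown in 96-well plates, cells were treated for 48 hours with each compound at five concentrations. Insufficient inhibition: endpoint recorded as highest concentration tested. GI50: concentration for 50% inhibition of growth. The concentration for full growth arrest is given as TGI.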
# What was measured:
# Assay in all cases: NCI-60 cell line screen, 48 h
# [1] = system: RPMI-8226 leukemia
# [2] = system: OVCAR-8 ovarian
# [3] = system: SN12C renal
# [4] = system: M14 melanoma
# [5] = system: SNB-75 CNS
# [6] = system: SK-MEL-2 melanoma
# [7] = system: DU-145 prostate
# [8] = system: COLO 205 colon
# [9] = system: OVCAR-3 ovarian
# [10] = system: NCI-H23 lung
SMILES,GI50 [1],TGI [1] [µM],GI50 [2],TGI [2] [µM],GI50 [3] [µM],TGI [3] [µM],GI50 [4],TGI [4] [µM],GI50 [5],TGI [5],GI50 [6],TGI [6],GI50 [7] [µM],TGI [7],GI50 [8],TGI [8],GI50 [9] [µM],TGI [9] [µM],GI50 [10],TGI [10] [µM]
O=C(N/N=C/c1ccc(O)cc1O)c1ccc(Nc2ccnc(C(F)(F)F)c2)cc1,> 100 µM,> 100,7.76 µM,> 100,24.4,> 100,> 100 µM,> 100,3.72 µM,26.7 µM,> 59.1 µM,> 100 µM,21.9,> 100 µM,7.61 µM,> 100 µM,0.35,> 100,> 82.1 µM,> 100
CN1CCN(Cc2ccc(NC(=O)c3[nH]ncc3Nc3ncnc4c3CCC4)cc2)CC1,2.82 µM,7.39,3.27 µM,13.5,1.01,20.2,0.948 µM,13.4,0.0341 µM,3.2 µM,2.14 µM,6.63 µM,1.64,10.7 µM,0.475 µM,2.25 µM,1.09,4.6,1.8 µM,6.79
O=[N+]([O-])c1cc(Br)cc2c1[nH]c1ccc(Br)cc12,25.4 µM,> 100,11.4 µM,> 100,53.8,> 100,14.6 µM,> 100,2.12 µM,14.8 µM,6.22 µM,41.5 µM,6.17,76.6 µM,4.7 µM,> 100 µM,2.56,7.42,8.56 µM,> 100
N#CSCC1CC(O)(c2ccccc2)C(c2ccccc2)C(c2ccc(F)cc2)O1 (stereo not given),1.67 µM,7.03,3.18 µM,11,2.05,5.27,1.84 µM,4.09,7.63 µM,45.2 µM,2.69 µM,7.78 µM,2.16,5 µM,3.13 µM,9.97 µM,1.52,2.99,3.21 µM,11.1
CN(/N=N/c1nc(OCc2ccccc2)c2[nH]cnc2n1)C(=O)N(C)/N=N/c1nc(OCc2ccccc2)c2[nH]cnc2n1,38.1 µM,> 100,51 µM,> 100,56.6,> 100,71.2 µM,> 100,> 100 µM,> 100 µM,65.3 µM,> 100 µM,38.9,> 100 µM,37.5 µM,> 100 µM,34.8,> 100,34.7 µM,> 100
Cc1c(CN2CCC(Nc3ncnc4sc(CC(F)(F)F)cc34)CC2)ccc2c1cc(C#N)n2Cc1cn[nH]c1,0.832 µM and 0.896 µM,4.47,5.07 µM and 6.1 µM,21.8,8.76,26.4,1.77 µM and 3.49 µM,3.69,8.38 µM and 2.47 µM,26.1 µM and 27.7 µM,8.97 µM and 9.33 µM,26.3 µM and 26.5 µM,10.3,23.9 µM and > 40.5 µM,1.64 µM and 2.05 µM,3.7 µM and 9.53 µM,10.4,24,1.33 µM and 2.23 µM,18.9
COc1ccc(C2=C(c3cn(C)c4ccccc34)C(=O)NC2=O)cc1OC,9.61 µM,> 25,15.6 µM,> 25,8.91,> 25,6.83 µM,> 25,0.743 µM,7.08 µM,6.18 µM,> 18.6 µM,> 19.4,> 25 µM,5.57 µM,> 20.3 µM,7.57,> 25,10.3 µM,> 25
CCOc1cc2ncc(C#N)c(Nc3ccc(F)c(Cl)c3)c2cc1NC(=O)/C=C/CN(C)C,1.04 µM,3.33,0.295 µM,> 9.22,0.173,> 6.03,0.312 µM,1.83,0.228 µM,> 3.71 µM,0.349 µM,> 3.21 µM,0.05,1.62 µM,1.33 µM,2.83 µM,0.216,1.77,1.32 µM,> 7.42
COc1cc(-c2cn(-c3ccc(Cl)cc3)c(=O)[nH]2)cc(OC)c1OC,> 100 µM,> 100,> 100 µM,> 100,> 100,> 100,> 100 µM,> 100,> 100 µM,> 100 µM,> 100 µM,> 100 µM,> 100,> 100 µM,> 100 µM,> 100 µM,> 100,> 100,> 100 µM,> 100
Cc1ccc2c(=O)[nH]sc2c1,,45.1,,33.2,,22.7,,23.9,,> 100 µM,,> 100 µM,,> 100 µM,,16.7 µM,,43.5,,42.4
